Like-named read-outs stand apart in the source and are kept apart here.
Experiments:
Phytophthora capsici = assay: In vitro fungitoxicity of hydrazones with and without copper towards Phytophthora capsici (Example 28, Table 3); assay type: cell-based; conditions: 0.039 μg/mL, 48 h; for % Inhn Plus copper Observed: copper-plus AS medium (CuCl2, 50 μM); for inhibition of growth at 0.039 µg/mL: Phytophthora capsici, copper-minus AS medium, read-out: % Inhn Minus copper Observed
[1] = system: Leptosphaeria nodorum (LEPTNO); assay: In vitro fungitoxicity of hydrazones with and without copper towards Leptosphaeria nodorum (Example 26); assay type: cell-based; conditions: 72 h at 25° C.
Phytophthora infestans = assay type: in vivo, Phytophthora infestans on tomato; conditions: applied 24 h before inoculation, assessed 7 days after inoculation
[2] = Parastagonospora nodorum, 72 h, compound 0.05 μg/mL, copper-minus medium, read-out: LEPTNO % Inhn. Minus Copper Observed
[3] = compound 0.05 μg/mL, copper-plus medium (CuCl2.2H2O)
[4] = hydrazone 50 ppm + 50 μM CuCl2.2H2O, tomato
[5] = Parastagonospora nodorum, 72 h, copper-minus medium, test compound Concn. 0.05 μg/mL, read-out: LEPTNO % Inhn. Minus Copper Observed
[6] = copper-plus medium (CuCl2 10 μM), test compound Concn. 0.05 μg/mL
[7] = hydrazone 50 ppm with 50 μM CuCl2.2H2O, tomato late blight

Structure (SMILES)	% Inhn Plus copper Observed (Phytophthora capsici) [%]	inhibition of growth at 0.039 µg/mL (Phytophthora capsici) [%]	inhibition of growth at 0.05 µg/mL [1, 2] [%]	LEPTNO % Inhn. Plus Copper Observed [1, 3] [%]	TLB % Control (Phytophthora infestans; [4]) [%]	melting point [°C]	inhibition of growth at 0.05 µg/mL [1, 5] [%]	LEPTNO % Inhn. Plus Copper Observed [1, 6] [%]	TLB % Control (Phytophthora infestans; [7]) [%]	further results
O=C(N/N=C/c1cc(Br)cc(Br)c1O)c1cccc(F)c1 [Example 119]	95.1	37.9	2.2	95.7	91.9	–	–	–	–	–
O=C(CCc1cc(Br)c(O)c(Br)c1)N/N=C/c1cc(Cl)cc(Cl)c1O [Example 5]	93.9	18.6	4.8	56.1	22.0	–	–	–	–	–
CNc1ccccc1C(=O)N/N=C/c1ccccc1O [Example 3]	88.5	0	2.3	93.0	47.0	–	–	–	–	–
O=C(N/N=C/c1ccccc1O)c1cccc(C(F)(F)F)c1 [Example 61]	95.6	17.6	3.8	93.6	60.0	–	–	–	–	–
O=C(N/N=C/c1cc(Cl)cc(Cl)c1O)c1ccccc1F [Example 101]	88.2	70	7.8	97.3	85.3	–	–	–	–	–
Nc1ccccc1C(=O)N/N=C/c1cc(Cl)cc(Cl)c1O [Example 91]	93.2	52.1	0	79.3	18.0	–	–	–	–	–
O=C(N/N=C/c1ccccc1O)c1ccccc1O [Example 1]	87.2	9.7	0.7	96.2	64.0	–	–	–	–	–
O=C(N/N=C/c1ccccc1O)c1ccc(-c2ccccc2)cc1 [Example 183]	88.9	0	0	96.7	66.7	–	–	–	–	–
CCOc1ccc(C(=O)N/N=C/c2ccccc2O)cc1 [Example 21]	90.0	0	0.1	94.1	65.5	–	–	–	–	–
O=C(N/N=C/c1cc(I)cc(I)c1O)c1ccccc1 [Example 146]	91.4	11.8	0	96.2	71.2	–	–	–	–	–
Cc1ccc(/C=N/NC(=O)c2ccc(C(C)C)cc2)c(O)c1 [Example 14]	87.2	0	–	–	7.5	–	–	–	–	inhibition of growth at 0.156 µg/mL ([1]; Parastagonospora nodorum, 72 h, compound 0.156 μg/mL, copper-minus medium, read-out: LEPTNO % Inhn. Minus Copper Observed): 2.9%; LEPTNO % Inhn. Plus Copper Observed ([1]; compound 0.156 μg/mL, copper-plus medium (CuCl2.2H2O)): 59.1%
Oc1c(Cl)cc(Cl)cc1/C=N/NC(=S)c1ccccc1 [Example 52]	91.2	40.6	–	–	–	–	–	–	–	inhibition of growth at 0.2 µg/mL ([1]; Parastagonospora nodorum, 72 h, compound 0.2 μg/mL, copper-minus medium, read-out: LEPTNO % Inhn. Minus Copper Observed): 12.3%; LEPTNO % Inhn. Plus Copper Observed ([1]; compound 0.2 μg/mL, copper-plus medium (CuCl2.2H2O)): 96.4%
C=CCc1cccc(/C=N/NC(=O)c2ccccc2)c1O [Example 143]	94.5	6	2.1	98.2	64.4	–	–	–	–	–
O=C(Cc1ccccc1)N/N=C/c1cc(Cl)cc(Br)c1O [Example 210]	92.7	36.6	1.9	94.1	37.0	–	–	–	–	–
Cc1ccc(C(=O)N/N=C/c2cc(Br)cc(Br)c2O)c(C)c1 [Example 28]	93.8	11.4	–	96.8	62.7	–	–	–	–	LEPTNO % Inhn. Minus Copper Observed ([1]; compound 0.05 μg/mL, copper-minus medium): 7.0%
C/C(=N\NC(=O)c1ccccc1)c1cccc(Cl)c1O [Example 492]	–	–	–	–	–	202 to 203	0	98.1	93.0	–
O=C(N/N=C/c1cc(Cl)cc(Br)c1O)c1ccc([N+](=O)[O-])cc1 [Example 417]	–	–	–	–	–	237 to 250	10.7	98.2	100.0	–
Cc1cccc(C(=O)N/N=C/c2cc(Cl)cc(Br)c2O)c1O [Example 165]	–	–	14.9	98.4	88.4	218 to 221	–	–	–	–

Structure (SMILES)	% Inhn Plus copper Observed (Phytophthora capsici) [%]	inhibition of growth at 0.039 µg/mL (Phytophthora capsici) [%]	inhibition of growth at 0.05 µg/mL [1, 2] [%]	LEPTNO % Inhn. Plus Copper Observed [1, 3] [%]	TLB % Control (Phytophthora infestans; [4]) [%]	melting point [°C]	inhibition of growth at 0.05 µg/mL [1, 5] [%]	LEPTNO % Inhn. Plus Copper Observed [1, 6] [%]	TLB % Control (Phytophthora infestans; [7]) [%]	further results
O=C(N/N=C/c1cc(C(F)(F)F)cc(C(F)(F)F)c1O)c1ccccc1O [Example 340]	–	–	–	–	–	231 to 235	18	96.2	95.0	–
C/C(=N\NC(=O)c1ccccc1O)c1cc(F)cc(F)c1O [Example 583]	–	–	–	–	–	308 to 323	13.2	98.0	100.0	–
CC/C(=N\NC(=O)c1c(Cl)cccc1Cl)c1ccccc1O [Example 48]	–	–	0.3	94.6	40.0	181 to 184	–	–	–	–
COc1cc(O)c(/C(C)=N/NC(=O)c2ccc(Br)cc2)c(OC)c1 [Example 570]	–	–	–	–	–	134 to 159	3.2	97.2	39.0	–
C/C(=N\NC(=O)c1ccc(Br)cc1)c1cc(Cl)ccc1O [Example 512]	–	–	–	–	–	269 to 271	7.4	97.8	59.0	–
C/C(=N\NC(=O)c1ccc(C(F)(F)F)cc1)c1cc(Cl)cc(Cl)c1O [Example 470]	–	–	–	–	–	237 to 238	4	98.0	93.0	–
C/C(=N\NC(=O)c1ccc(C)cc1)c1cc(Br)cc(Br)c1O [Example 542]	–	–	–	–	–	258 to 259	0	95.8	100.0	–
COc1ccc(C(=O)N/N=C(\C)c2cc(Cl)ccc2O)cc1 [Example 511]	–	–	–	–	–	203 to 228	0	97.8	73.0	–
COc1cccc(/C(C)=N/NC(=O)c2ccccc2Br)c1O [Example 467]	–	–	–	–	–	245 to 247	0	95.7	80.0	–
O=C(N/N=C/c1cc(C(F)(F)F)cc(Cl)c1O)c1ccc(Cl)cc1 [Example 326]	–	–	–	–	–	208 to 210	6.9	95.6	93.0	–
C/C(=N\NC(=O)c1cccc(Cl)c1)c1cc(Br)cc(Br)c1O [Example 544]	–	–	–	–	–	255 to 256	6.9	97.6	97.0	–
Cc1cccc(C(=O)N/N=C/c2cc(C(F)(F)F)ccc2O)c1 [Example 435]	–	–	–	–	–	192 to 194	4.7	97.2	100.0	–
N#Cc1cccc(C(=O)N/N=C/c2cc(Cl)cc(Cl)c2O)c1 [Example 309]	–	–	–	–	–	252 to 271	5.5	97.4	74.0	–
C/C(=N\NC(=O)c1ccc(Br)cc1)c1ccccc1O [Example 458]	–	–	–	–	–	218 to 221	3.7	96.6	46.0	–
COc1ccc(/C(C)=N/NC(=O)c2ccccc2O)c(O)c1 [Example 473]	–	–	–	–	–	276 to 278	0	97.5	78.0	–
COc1ccc(/C(C)=N/NC(=O)c2ccccc2C)c(O)c1OC [Example 552]	–	–	–	–	–	150 to 152	0	94.2	71.0	–
O=C(N/N=C/c1ccc(C(F)(F)F)cc1O)c1ccccc1 [Example 294]	–	–	1.7	94.2	72.9	215 to 217	–	–	–	–
C/C(=N\NC(=O)c1cccc(Cl)c1O)c1cc(Cl)cc(Cl)c1O [Example 481]	–	–	–	–	–	260 to 262	10.3	97.8	76.0	–

Reference: patent US20120010075A1 (priority 2009, published 2012)
